From patent US9115093B2, “Substituted bicyclic dihydropyrimidinones and their use as inhibitors of neutrophil elastase activity” (Boehringer Ingelheim International GmbH, priority 2013, dated 2015) come the findings set out here.

In general, IC50 refers to the concentration that gives 50% inhibition.

The assay concerns the target T1, neutrophil elastase (Homo sapiens, UniProt P08246).
T1 sequence (P08246 30-247 limits assumed): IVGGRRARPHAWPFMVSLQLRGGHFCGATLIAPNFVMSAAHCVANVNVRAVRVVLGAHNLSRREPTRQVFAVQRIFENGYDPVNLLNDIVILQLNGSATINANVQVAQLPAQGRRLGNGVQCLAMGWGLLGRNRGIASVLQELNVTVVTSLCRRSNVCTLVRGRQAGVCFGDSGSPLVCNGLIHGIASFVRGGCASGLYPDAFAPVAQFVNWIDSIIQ
The assay is described as follows: Human Neutrophil Elastase Assay. The assay is classed as biochemical. Set-up: purchased Calbiochem 324681. Particulars: substrate MeOSuc-Ala-Ala-Pro-Val-AMC, pH 7.5, room temperature. An outline of the steps:
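Readout: AMC fluorescence (ex 380, em 460 nm) after 60 min room-temperature reaction with 250 nM MeOSuc-AAPV-AMC, following 15 min compound–enzyme preincubation. Buffer: Tris/NaCl pH 7.5, 0.01% BSA.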

In the case of `CN(C)C(=O)CN1C(=O)N(c2cccc(C(F)(F)F)c2)C2=C(C(=O)CCC2)C1c1ccc(C#N)cc1S(C)(=O)=O` (centres unmarked) [Example 62, 2-(4-(4-Cyano-2-(methylsulfonyl)phenyl)-2,5-dioxo-1-(3-(trifluoromethyl)phenyl)-1,2,5,6,7,8-hexahydroquinazolin-3(4H)-yl)-N,N-dimethylacetamide], the IC50 was 1.2 nM.

The compound `Cc1cc(C#N)ccc1C1C2=C(CCCC2=O)N(c2cccc(C(F)(F)F)c2)C(=O)N1C` (centres unmarked) [Example 63, 3-Methyl-4-(3-methyl-2,5-dioxo-1-(3-(trifluoromethyl)phenyl)-1,2,3,4,5,6,7,8-octahydroquinazolin-4-yl)benzonitrile] yielded an IC50 of 7.9 nM.

As for `CN1C(=O)N(c2ccnc(C(F)(F)F)c2)C2=C(C(=O)CCC2)C1c1ccc(C#N)cc1` (centres unmarked) [Example 65, 4-(3-Methyl-2,5-dioxo-1-(2-(trifluoromethyl)pyridin-4-yl)-1,2,3,4,5,6,7,8-octahydroquinazolin-4-yl)benzonitrile], the half-maximal inhibitory concentration (IC50) stood at 22.6 nM.

With `Cc1cc(C#N)ccc1C1C2=C(CCCC2=O)N(c2cccc(C(F)(F)F)c2)C(=O)N1S(C)(=O)=O` (centres unmarked) [Example 66, 3-Methyl-4-(3-(methylsulfonyl)-2,5-dioxo-1-(3-(trifluoromethyl)phenyl)-1,2,3,4,5,6,7,8-octahydroquinazolin-4-yl)benzonitrile], inhibition was half-maximal at 2 nM (IC50).

With `CS(=O)(=O)N1C(=O)N(c2cccc(C(F)(F)F)c2)C2=C(C(=O)CCC2)C1c1ccc(C#N)cc1Cl` (centres unmarked) [Example 67, 3-Chloro-4-(3-(methylsulfonyl)-2,5-dioxo-1-(3-(trifluoromethyl)phenyl)-1,2,3,4,5,6,7,8-octahydroquinazolin-4-yl)benzonitrile], the IC50 is 6.7 nM.

The compound `CS(=O)(=O)N1C(=O)N(c2ccnc(C(F)(F)F)c2)C2=C(C(=O)CCC2)C1c1ccc(C#N)cc1` (centres unmarked) [Example 69, 4-(3-(Methylsulfonyl)-2,5-dioxo-1-(2-(trifluoromethyl)pyridin-4-yl)-1,2,3,4,5,6,7,8-octahydroquinazolin-4-yl)benzonitrile] returned an IC50 of 23.8 nM.

In turn, `N#Cc1ccc(C2C3=C(CCCC3=O)N(c3cccc(C(F)(F)F)c3)C(=O)N2C(N)=O)cc1` (centres unmarked) [Example 70, 4-(4-Cyanophenyl)-2,5-dioxo-1-(3-(trifluoromethyl)phenyl)-1,2,5,6,7,8-hexahydroquinazoline-3(4H)-carboxamide] yielded an IC50 of 6 nM.

For the compound `CCNC(=O)N1C(=O)N(c2cccc(C(F)(F)F)c2)C2=C(C(=O)CCC2)C1c1ccc(C#N)cc1` (centres unmarked) [Example 70.1], the IC50 was less than 1 nM.

`N#CCNC(=O)N1C(=O)N(c2cccc(C(F)(F)F)c2)C2=C(C(=O)CCC2)C1c1ccc(C#N)cc1` (centres unmarked) [Example 70.2] displayed an IC50 of less than 1 nM.

On to `N#Cc1ccc(C2C3=C(CCCC3=O)N(c3cccc(C(F)(F)F)c3)C(=O)N2C(=O)NC2CC2)cc1` (centres unmarked) [Example 70.3], for which the IC50 is less than 1 nM.

For the compound `CC(C)NC(=O)N1C(=O)N(c2cccc(C(F)(F)F)c2)C2=C(C(=O)CCC2)C1c1ccc(C#N)cc1` (centres unmarked) [Example 70.4], the midpoint of inhibition, the IC50, lay at 1.4 nM.

The compound `N#Cc1ccc(C2C3=C(CCCC3=O)N(c3cccc(C(F)(F)F)c3)C(=O)N2C(=O)NCC2CC2)cc1` (centres unmarked) [Example 70.5] gave an IC50 of 1.4 nM.

Take `N#Cc1ccc(C2C3=C(CCCC3=O)N(c3cccc(C(F)(F)F)c3)C(=O)N2C(=O)NCC(F)F)cc1` (centres unmarked) [Example 70.6]: the IC50 was less than 1 nM.

`N#Cc1ccc(C2C3=C(CCCC3=O)N(c3cccc(C(F)(F)F)c3)C(=O)N2C(=O)NCC2(O)CC2)cc1` (centres unmarked) [Example 70.7] returned an IC50 of 1.4 nM.

As for `N#Cc1ccc(C2C3=C(CCCC3=O)N(c3cccc(C(F)(F)F)c3)C(=O)N2C(=O)NC2CCOC2)cc1` (centres unmarked) [Example 70.8], the IC50 was less than 1 nM.

For `CC(C)(CO)NC(=O)N1C(=O)N(c2cccc(C(F)(F)F)c2)C2=C(C(=O)CCC2)C1c1ccc(C#N)cc1` (centres unmarked) [Example 70.10], half-maximal inhibition (IC50) was put at 2.4 nM.

Compound `N#Cc1ccc(C2C3=C(CCCC3=O)N(c3cccc(C(F)(F)F)c3)C(=O)N2C(=O)NCC2(O)CCC2)cc1` (centres unmarked) [Example 70.13] displayed an IC50 of 2.1 nM.

Take `N#Cc1ccc(C2C3=C(CCCC3=O)N(c3cccc(C(F)(F)F)c3)C(=O)N2C(=O)NC2CCOCC2)cc1` (centres unmarked) [Example 70.14]: the IC50 was less than 1 nM.

`N#Cc1ccc(C2C3=C(CCCC3=O)N(c3cccc(C(F)(F)F)c3)C(=O)N2C(=O)NCC2CC(O)C2)cc1` (centres unmarked) [Example 70.15] displayed an IC50 of less than 1 nM.

As for `CC(C)(O)CCNC(=O)N1C(=O)N(c2cccc(C(F)(F)F)c2)C2=C(C(=O)CCC2)C1c1ccc(C#N)cc1` (centres unmarked) [Example 70.16], the IC50 amounted to 1.1 nM.

Compound `N#Cc1ccc(C2C3=C(CCCC3=O)N(c3cccc(C(F)(F)F)c3)C(=O)N2C(=O)NC2CS(=O)(=O)C2)cc1` (centres unmarked) [Example 70.18] yielded an IC50 of less than 1 nM.

The compound `N#Cc1ccc(C2C3=C(CCCC3=O)N(c3cccc(C(F)(F)F)c3)C(=O)N2C(=O)NC2CCS(=O)(=O)C2)cc1` (centres unmarked) [Example 70.19] yielded an IC50 of less than 1 nM.

In turn, `N#Cc1ccc(C2C3=C(CCCC3=O)N(c3cccc(C(F)(F)F)c3)C(=O)N2C(=O)NC2CCCS(=O)(=O)C2)cc1` (centres unmarked) [Example 70.20] yielded an IC50 of less than 1 nM.

In turn, `N#Cc1ccc(C2C3=C(CCCC3=O)N(c3cccc(C(F)(F)F)c3)C(=O)N2C(=O)NC2CC[S+]([O-])CC2)cc1` (centres unmarked) [Example 71, 4-(4-Cyanophenyl)-2,5-dioxo-N-(1-oxo-hexahydro-1λ^4-thiopyran-4-yl)-1-(3-(trifluoromethyl)phenyl)-1,2,5,6,7,8-hexahydroquinazoline-3(4H)-carboxamide] came in with an IC50 of less than 1 nM.

`N#Cc1ccc(C2C3=C(CCCC3=O)N(c3cccc(C(F)(F)F)c3)C(=O)N2C(=O)NC2CCS(=N)(=O)CC2)cc1` (centres unmarked) [Example 72, 4-(4-Cyanophenyl)-2,5-dioxo-N-(1-imino-1-oxo-hexahydro-1λ^6-thiopyran-4-yl)-1-(3-(trifluoromethyl)phenyl)-1,2,5,6,7,8-hexahydroquinazoline-3(4H)-carboxamide]: the IC50 was less than 1 nM.

Compound `CNC(=O)N1C(=O)N(c2cccc(C(F)(F)F)c2)C2=C(C(=O)CCC2)C1c1ccc(C#N)cc1C` (centres unmarked) [Example 73, 4-(4-Cyano-2-methylphenyl)-N-methyl-2,5-dioxo-1-(3-(trifluoromethyl)phenyl)-1,2,5,6,7,8-hexahydroquinazoline-3(4H)-carboxamide] yielded an IC50 of less than 1 nM.

Consider `CCNC(=O)N1C(=O)N(c2cccc(C(F)(F)F)c2)C2=C(C(=O)CCC2)C1c1ccc(C#N)cc1C` (centres unmarked) [Example 74, 4-(4-Cyano-2-methylphenyl)-N-ethyl-2,5-dioxo-1-(3-(trifluoromethyl)phenyl)-1,2,5,6,7,8-hexahydroquinazoline-3(4H)-carboxamide], for which the IC50 was less than 1 nM.

The compound `CS(=O)(=O)c1cc(C#N)ccc1[C@@H]1C2=C(CCCC2=O)N(c2cccc(C(F)(F)F)c2)C(=O)N1C(=O)NCC#N` [Example 75.1] showed an IC50 of less than 1 nM.

As for `CS(=O)(=O)c1cc(C#N)ccc1[C@@H]1C2=C(CCCC2=O)N(c2cccc(C(F)(F)F)c2)C(=O)N1C(=O)NC1CC1` [Example 75.2], the IC50 was less than 1 nM.

`CC(C#N)NC(=O)N1C(=O)N(c2cccc(C(F)(F)F)c2)C2=C(C(=O)CCC2)[C@H]1c1ccc(C#N)cc1S(C)(=O)=O` (some centres unmarked) [Example 75.4] returned a concentration for half-maximal inhibition (IC50) of less than 1 nM.

With `CS(=O)(=O)c1cc(C#N)ccc1[C@@H]1C2=C(CCCC2=O)N(c2cccc(C(F)(F)F)c2)C(=O)N1C(=O)NC1COC1` [Example 75.5], the IC50 is less than 1 nM.

In turn, `COCCNC(=O)N1C(=O)N(c2cccc(C(F)(F)F)c2)C2=C(C(=O)CCC2)[C@H]1c1ccc(C#N)cc1S(C)(=O)=O` [Example 75.6] had an IC50 of less than 1 nM.

`CS(=O)(=O)c1cc(C#N)ccc1[C@@H]1C2=C(CCCC2=O)N(c2cccc(C(F)(F)F)c2)C(=O)N1C(=O)NC1(C#N)CC1` [Example 75.8] returned an IC50 of less than 1 nM.

Compound `CS(=O)(=O)c1cc(C#N)ccc1[C@@H]1C2=C(CCCC2=O)N(c2cccc(C(F)(F)F)c2)C(=O)N1C(=O)NC1CCOC1` (some centres unmarked) [Example 75.10] displayed a half-inhibitory concentration (IC50) of less than 1 nM.

Consider `CS(=O)(=O)c1cc(C#N)ccc1[C@@H]1C2=C(CCCC2=O)N(c2cccc(C(F)(F)F)c2)C(=O)N1C(=O)NC1CC(O)C1` (some centres unmarked) [Example 75.11], for which the IC50 was less than 1 nM.

`CC(C)(O)CNC(=O)N1C(=O)N(c2cccc(C(F)(F)F)c2)C2=C(C(=O)CCC2)[C@H]1c1ccc(C#N)cc1S(C)(=O)=O` [Example 75.12] displayed an IC50 of less than 1 nM.

`N#Cc1ccc(C2C3=C(CCCC3=O)N(c3ccnc(C(F)(F)F)c3)C(=O)N2C(=O)NC2CC2)cc1` (centres unmarked) [Example 76, 4-(4-Cyanophenyl)-N-cyclopropyl-2,5-dioxo-1-(2-(trifluoromethyl)pyridin-4-yl)-1,2,5,6,7,8-hexahydroquinazoline-3(4H)-carboxamide] returned an IC50 of 1.7 nM.

Compound `CNC(=O)N1C(=O)N(c2ccnc(C(F)(F)F)c2)C2=C(C(=O)CCC2)C1c1ccc(C#N)cc1` (centres unmarked) [Example 76.1] showed an IC50 of 4.4 nM.

`CCNC(=O)N1C(=O)N(c2ccnc(C(F)(F)F)c2)C2=C(C(=O)CCC2)C1c1ccc(C#N)cc1` (centres unmarked) [Example 76.2] yielded an IC50 of 1.2 nM.

Consider `CC(C)NC(=O)N1C(=O)N(c2ccnc(C(F)(F)F)c2)C2=C(C(=O)CCC2)C1c1ccc(C#N)cc1` (centres unmarked) [Example 76.3], for which it took 1.9 nM to reach half-maximal inhibition (IC50).

For the compound `CC(C)(O)CNC(=O)N1C(=O)N(c2ccnc(C(F)(F)F)c2)C2=C(C(=O)CCC2)C1c1ccc(C#N)cc1` (centres unmarked) [Example 76.4], the IC50 was 5.5 nM.
